For data set [1] the following is noted: cited from earlier work.
For data set [2] the following is noted: cited from earlier work; for ADI value/kg KG: acceptable daily intake per kg body weight.
For data set [3] the following is noted: neotam as aspartame derivative; cited from earlier work.
A further data set has as its system bladder carcinomas. The note with it: cited from earlier work.
Data set [4] in a line: Acceptable daily intake (ADI) value and highest daily doses calculated from it. The note with it: child weighing 10 kg; for Highest dose/sachet: four sachets a day.
From the text: An E number is provided for each sweetener and an ADI value is defined. The “acceptable daily intake” (ADI) value gives the quantity in milligrams per kilogram of body weight (KG) of the substance, which can be taken daily for life without incurring damage.
ADI values (acceptable daily intake) were established for the sweeteners. Using the ADI values, maximum concentrations can be calculated, which may be applied daily by a substance without incurring damage for life. The sweetener addition to the ORS solutions is limited by the ADI values. According to the specialist information for preparation C, the therapeutic maximum dose is four sachets a day for babies and small children. […] The calculation relates to the bodyweight of a child weighing 10 kg.
The nature of data set [5]: Organoleptic check of ORS solutions with a single sweetener. The note with it: 200 mg Na-cyclamate or quantity calculated to equal sweetening power per dose. The class given is in vivo. On the procedure:
Permitted sweeteners were used for a taste test on ORS solutions. Different concentrations of 10 to 200 mg of the sweetener Na-cyclamate were weighed into the solids mixture. Na-cyclamate is a sodium salt like NaCl. In comparison to other sweeteners, it has a low sweetening power. It was to be found out whether the salty taste of the ORS solution can be masked as a function of concentration by Na-cyclamate. The powder mixtures were weighed out according to the composition of the WHO and dissolved in water according to the instruction.
After organoleptic checking, no salty taste was perceived for the ORS solution with a concentration of 200 mg Na-cyclamate.
The sweeteners were calculated to the standard concentration of the Na-cyclamate. The different sweetening power values of the sweeteners were used as the reference variable.
The calculated quantities of sweeteners were added to the ORS powder mixtures and dissolved in water. The following organoleptic test took place.

Data set [6] is described as follows: Organoleptic test of ORS solutions with sugars and sugar alcohols. It counts as in vivo. The text has this: Further sweetening agents were included in a taste testing. An addition of sugars and sugar alcohols has a substantially stronger effect on the total osmolarity of an ORS solution than the addition of sweeteners. […] In addition to the total osmolarity of the effective constituents of the ORS solutions, the values are outside the recommended limits of the WHO recommendations. The quantities to be added are not to be recommended either in relation to the promotion of caries and a laxative effective. […] A taste test was nevertheless carried out with the sugars and sugar alcohols. Complete dissolution took place in water and an organoleptic test took place with the calculated quantities. […] The concentrations of substances were reduced to such an extent that the maximum limit of the osmolarity of 311 mosmol/l was adhered to. […] The addition of sweeteners is to be preferred in each case with regard to side-effects, osmolarity and a complete masking of the salty taste.

The conditions of data set [7]: in vivo; cited from earlier work.
For data set [8] the following is noted: ranking of the three sweeteners.
Method: In order to use as few sweeteners as possible, two sweeteners from Table 3 are combined with one another in each case. The result is six combinations. […] As a result, the concentration with 40 mg for aspartame was only selected to be half as high as the maximally permissible daily highest limit. In order to ensure a comparability with the other sweeteners, the concentration of aspartame was also retained for the remaining combinations.
Proceeding from the tested concentration ratios of the combinations it was investigated whether the same masking of taste can be achieved by a reduction in dose of the sweeteners.
Where [9] appears, read: relative to saccharose = 1, sweeteners permitted in the European Union.
Where [10] appears, read: sugars and sugar alcohols table.
The mark [11] stands for this setting: calculated quantities (equal sweetness to 200 mg Na-cyclamate).
Setting [12] is: concentrations reduced so that maximum osmolarity of 311 mosmol/l is adhered to.

“Also recorded” adds a separate entry of the source. Like-named read-outs stand apart in the source and are kept apart here. Where a SMILES comes first, the peptide text is derived from it.

`COc1ccc(CCC(=O)c2c(O)cc(O[C@@H]3O[C@H](CO)[C@@H](O)[C@H](O)[C@H]3O[C@@H]3O[C@@H](C)[C@H](O)[C@@H](O)[C@H]3O)cc2O)cc1O` [Neohesperidin dihydrochalcone]: the Sweetening power in data set [1] (setting [9]) was 1000. In addition, in data set [2], the “ADI value/kg KG” value was 5 mg mg/kg KG.
In the case of `COC(=O)[C@H](Cc1ccccc1)NC(=O)[C@H](CC(=O)O)NCCC(C)(C)C` [Neotam], the Sweetening power entry in data set [1] (relative to saccharose) was “about 10,000”. For the same compound, the hydrolytic stability result in data set [3] is reported as “better hydrolytic stability”.
Turning to `OC[C@@H](O)[C@@H](O)[C@H](O)[C@H](O)CO` [Mannitol], the Sweetening power in [1] (setting [10]) was 0.4.
As for `OC[C@@H](O)[C@@H](O)[C@H](O)[C@@H](O)CO` [Sorbitol], the Sweetening power in [1] (setting [10]) was 0.6.
Consider `O=C1NS(=O)(=O)c2ccccc21.[Na]` [Saccharin sodium], for which the Sweetening power in data set [1] (setting [9]) is recorded as 500. For the same compound, the “promotion of the growth of bladder carcinomas” value in the data set with bladder carcinomas is recorded as “suspected of promoting the growth of bladder carcinomas”. Besides, the “ADI value/kg KG” value in [2] is 5 mg mg/kg KG. For the same compound, in [4], the “Highest daily dose/10 kg BW” value is recorded as 50 mg and the Highest dose/sachet is listed as 12.5 mg.
Consider Isomalt, for which the Sweetening power in data set [1] (setting [10]) is 0.45.
For `OC[C@H]1O[C@H](O[C@]2(CCl)O[C@H](CCl)[C@@H](O)[C@@H]2O)[C@H](O)[C@@H](O)[C@H]1Cl` [Sucralose], the Sweetening power in [1] (setting [9]) is recorded as 600. Moreover, the “ADI value/kg KG” value in data set [2] is given as 15 mg mg/kg KG.
As to `CC1=CC(=O)NS(=O)(=O)O1` [Acesulfame potassium], the Sweetening power in data set [1] (setting [9]) is 200. Moreover, the “masking of the salty taste of the ORS solution” value in data set [5] (listed as acesulfame-K) is “salty taste was perceived to a lesser extent; also recorded: masking was achieved”. For the same compound, the “ADI value/kg KG” value in [2] is 15 mg mg/kg KG. Besides, in [4], the “Highest daily dose/10 kg BW” value is 150 mg and the Highest dose/sachet is 37.5 mg.
In the case of `OC[C@@H](O)[C@@H](O[C@H]1O[C@H](CO)[C@@H](O)[C@H](O)[C@H]1O)[C@H](O)[C@@H](O)CO` [Maltitol], the Sweetening power in [1] (setting [10]) is given as 0.9. Also, the “masking of the salty taste of the ORS solutions” value was “masking of the salty taste of the ORS solutions could substantially be achieved” in [6] (setting [11]); “substantially not salty, but very sour and not sweet” in data set [6] (setting [12]).
In the case of `OC[C@H]1O[C@@](CO)(O[C@H]2O[C@H](CO)[C@@H](O)[C@H](O)[C@H]2O)[C@@H](O)[C@@H]1O` [Saccharose], the Sweetening power entry is “one” in data set [1] (relative to saccharose) and 1 in data set [1] (setting [10]). Moreover, the entries for the “masking of the salty taste of the ORS solutions” value in data set [6] (setting [11]) and in [6] (setting [12]) were “masking of the salty taste of the ORS solutions could substantially be achieved” and “No masking of taste could be achieved”, respectively.
In the case of `CC1=CC(=O)NS(=O)(=O)O1` [Acesulfame], the “fate in the human organism (splitting, metabolism, elimination)” value (shortened to “fate in the human organism”) in data set [7] was “eliminated unchanged via the kidneys”.
Consider `COC(=O)[C@H](Cc1ccccc1)NC(=O)[C@@H](N)CC(=O)O` [Aspartame] (H-Asp-Phe-OMe), for which the Sweetening power in data set [1] (setting [9]) is given as 200. Moreover, the “fate in the human organism” value in data set [7] was “metabolised in the body”. The “masking of the salty taste of the ORS solution” value in data set [5] is on record as “salty taste was perceived to a lesser extent; also recorded: masking was achieved”. Further, the “ADI value/kg KG” value in [2] is on record as 40 mg mg/kg KG. In data set [4], the “Highest daily dose/10 kg BW” value was 400 mg and the Highest dose/sachet is 100.0 mg.
In the case of `O=S(=O)([O-])NC1CCCCC1.[Na+]` [Sodium cyclamate], the Sweetening power in data set [1] (setting [9]) is 30. The Sweetening power in data set [1] (setting [10]) is on record as 30. Also, in data set [5], the “masking of the salty taste of the ORS solution” value was “complete masking of taste; also recorded: masking was achieved”. Moreover, in data set [2], the “ADI value/kg KG” value is 11 mg mg/kg KG and the ADI value is 11 mg per kg of bodyweight. Further, in [8], the “ability to mask a salty taste” value is listed as “highest”. Also, in data set [4], the “Highest daily dose/10 kg BW” value is 110 mg and the Highest dose/sachet was 27.5 mg.
`CC1=CC(=O)NS(=O)(=O)O1.COC(=O)[C@H](Cc1ccccc1)NC(=O)[C@@H](N)CC(=O)O` [Aspartame-acesulfame salt] (H-Asp-Phe-OMe): the Sweetening power in [1] (setting [9]) is recorded as 350. In data set [7], the “fate in the human organism” value was “split into its original components aspartame and acesulfame”. Besides, the “masking of the salty taste of the ORS solution” value in data set [5] is recorded as “salty taste was perceived to a lesser extent”.
For the compound `OC[C@H]1O[C@@H](O[C@H]2[C@H](O)[C@@H](O)C(O)O[C@@H]2CO)[C@H](O)[C@@H](O)[C@H]1O` (stereo partly drawn) [Lactose], the Sweetening power in data set [1] (setting [10]) was 0.2.
In the case of Thaumatin, the Sweetening power in [1] (setting [9]) was 3000. For the same compound, the “masking of the salty taste of the ORS solution” value in data set [5] is reported as “could also no longer be masked”. The “ADI value/kg KG” value in [2] is recorded as 5 mg mg/kg KG.

These data come from patent US20100298242A1, “MASKING THE TASTE OF COMPOSITONS CONTAINING SALT” (priority 2006, published 2010).
